ChEMBL document CHEMBL3745709, “Synthesis of novel ethyl 1-ethyl-6-fluoro-7-(fatty amido)-1,4-dihydro-4-oxoquinoline-3-carboxylate derivatives and their biological evaluation” (Bioorg Med Chem Lett, 2016)
Values after ≈ are worked out from the molar mass of the structure shown.

Key:
[1] = Cytotoxicity against human DU145 cells assessed as reduction in cell viability by MTT assay; type: functional, cell-based; details: DU-145
A549 [2] = assay: Cytotoxicity against human A549 cells assessed as reduction in cell viability by MTT assay; type: functional, cell-based
[3] = Cytotoxicity against human SKOV3 cells assessed as reduction in cell viability by MTT assay; type: functional, cell-based; details: SK-OV-3
MCF7 = assay: Cytotoxicity against human MCF7 cells assessed as reduction in cell viability by MTT assay; type: functional, cell-based
[4] = Antioxidant activity assessed as DPPH free radical scavenging activity; type: physicochemical
Micrococcus luteus = assay: Antibacterial activity against Micrococcus luteus MTCC 2470 assessed as inhibition zone after 24 hrs at 30 degC by well diffusion method; type: functional; details: MTCC 2470, 24 h
Staphylococcus aureus [5] = assay: Antibacterial activity against Staphylococcus aureus MTCC 96 […] after 24 hrs at 30 degC by well diffusion method; type: functional; details: MTCC 96, 24 h
Staphylococcus aureus [6] = assay: Antibacterial activity against Staphylococcus aureus MLS-16 MTCC 2940 assessed as inhibition zone after 24 hrs at 30 degC by well diffusion method; type: functional; details: MLS-16 MTCC 2940, 24 h
Bacillus subtilis = assay: Antibacterial activity against Bacillus subtilis MTCC 121 assessed as inhibition zone after 24 hrs at 30 degC by well diffusion method; type: functional; details: MTCC 121, 24 h
Escherichia coli = assay: Antibacterial activity against Escherichia coli MTCC 739 assessed as inhibition zone after 24 hrs at 30 degC by well diffusion method; type: functional; details: MTCC 739, 24 h
Pseudomonas aeruginosa = assay: Antibacterial activity against Pseudomonas aeruginosa MTCC 2453 assessed as inhibition zone after 24 hrs at 30 degC by well diffusion method; type: functional; details: MTCC 2453, 24 h
Raoultella planticola = assay: Antibacterial activity against Klebsiella planticola MTCC 530 assessed as inhibition zone after 24 hrs at 30 degC by well diffusion method; type: functional; details: MTCC 530, 24 h
Candida albicans = assay: Antifungal activity against Candida albicans MTCC 3017 […] after 24 hrs at 30 degC by well diffusion method; type: functional; details: MTCC 3017, 24 h
[7] = Cytotoxicity against human IMR90 cells assessed as reduction in cell viability by MTT assay; type: cell-based; details: IMR-90
IMR-90 [8] = assay: Selectivity index, ratio of IC50 for human IMR90 cells to IC50 for human DU145 cells; type: functional
A549 [9] = assay: Selectivity index, ratio of IC50 for human IMR90 cells to IC50 for human A549 cells; type: functional
SK-OV-3 = assay: Selectivity index, ratio of IC50 for human IMR90 cells to IC50 for human SKOV3 cells; type: functional
IMR-90 [10] = assay: Selectivity index, ratio of IC50 for human IMR90 cells to IC50 for human MCF7 cells; type: functional

Structure (SMILES)	EC50 [4]	MIC (Micrococcus luteus)	MIC (Staphylococcus aureus [5])	MIC (Staphylococcus aureus [6])	MIC (Bacillus subtilis)	MIC (Escherichia coli)	MIC (Pseudomonas aeruginosa)	MIC (Candida albicans)	IC50 [1]	IC50 (A549 [2])	IC50 [3]	IC50 (MCF7)	MIC (Raoultella planticola)	IC50 [7]	Ratio IC50 (IMR-90 [8])	Ratio IC50 (A549 [9])	Ratio IC50 (SK-OV-3)	Ratio IC50 (IMR-90 [10])
CCCCCCCCCCCCCCCC(=O)Nc1cc2c(cc1F)c(=O)c(C(=O)OCC)cn2CC	Not Active	> 125 µg/mL	> 125 µg/mL	> 125 µg/mL	> 125 µg/mL	> 125 µg/mL	> 125 µg/mL	> 125 µg/mL	25.2 µM	24.3 µM	17.8 µM	18.6 µM	> 125 µg/mL					
Cc1cc(C(C)(C)C)c(O)c(C(C)(C)C)c1 [BUTYLATED HYDROXYTOLUENE]	28.5 µg/mL (≈ 129 µM)																	
Cc1c(C)c2c(c(C)c1O)CC[C@@](C)(CCC[C@H](C)CCC[C@H](C)CCCC(C)C)O2 [ALPHA-TOCOPHEROL]	10.4 µg/mL (≈ 24.1 µM)																	

Second part, led by results:

EC50 [4]	MIC (Micrococcus luteus)	MIC (Staphylococcus aureus [5])	MIC (Staphylococcus aureus [6])	MIC (Bacillus subtilis)	MIC (Escherichia coli)	MIC (Pseudomonas aeruginosa)	MIC (Candida albicans)	Structure (SMILES)	IC50 [1]	IC50 (A549 [2])	IC50 [3]	IC50 (MCF7)	MIC (Raoultella planticola)	IC50 [7]	Ratio IC50 (IMR-90 [8])	Ratio IC50 (A549 [9])	Ratio IC50 (SK-OV-3)	Ratio IC50 (IMR-90 [10])
147.5 µg/mL (≈ 332 µM)	> 125 µg/mL	> 125 µg/mL	> 125 µg/mL	> 125 µg/mL	> 125 µg/mL	> 125 µg/mL	> 125 µg/mL	C=CCCCCCCCCC(=O)Nc1cc2c(cc1F)c(=O)c(C(=O)OCC)cn2CC	87.3 µM	66.5 µM	91.2 µM	64.6 µM	> 125 µg/mL					
109.8 µg/mL (≈ 271 µM)	> 125 µg/mL	> 125 µg/mL	> 125 µg/mL	> 125 µg/mL	> 125 µg/mL	> 125 µg/mL	> 125 µg/mL	CCCCCCCC(=O)Nc1cc2c(cc1F)c(=O)c(C(=O)OCC)cn2CC	10.1 µM	9.2 µM	8.1 µM	7.9 µM	> 125 µg/mL	91.2 µM	9	9.9	11.2	11.5
286 µg/mL (≈ 585 µM)	> 125 µg/mL	> 125 µg/mL	> 125 µg/mL	> 125 µg/mL	> 125 µg/mL	> 125 µg/mL	> 125 µg/mL	CCCCCCCCCCCCCC(=O)Nc1cc2c(cc1F)c(=O)c(C(=O)OCC)cn2CC	10.4 µM	9.6 µM	8.2 µM	9.1 µM	> 125 µg/mL	86.4 µM	8.3	9	10.5	9.4
